Patent publication US12685735B2 (Foghorn Therapeutics Inc., priority 2020, dated 2026)
Read-outs that look alike come from different tables or passages of the source.

Assays:
BRG-1 = BRG-1 (Homo sapiens, UniProt P51532); assay: ATPase catalytic activity assay of BRG-1 (ADP-Glo); format: biochemical; details: ATPase catalytic activity, ADP-Glo; for IC50: read-out: BRG1 IC50 (μM)*; for Emax: read-out: BRG1 Max % Inhibition
Description: (§1) The ATPase catalytic activity of BRM or BRG-1 was measured by the in vitro biochemical assay using ADP-Glo™ (Promega, V9102). The ADP-Glo™ kinase assay is performed in two steps once the reaction is complete. The first step is to deplete any unconsumed ATP in the reaction. The second step is to convert the reaction product ADP to ATP, which will be utilized by the luciferase to generate luminesce and be detected by a luminescence reader, such as Envision.
(§2) Then following addition of 5 μL of ADP-Glo™ Reagent provided in the kit, the reaction incubates at room temperature for 40 minutes. Then 10 μL of Kinase Detection Reagent provided in the kit is added to convert ADP to ATP, and the reaction incubates at room temperature for 60 minutes. Finally, luminescence measurement is collected with a plate-reading luminometer, such as Envision.
as §1, with “The” for “The ATPase catalytic activity of BRM or BRG-1 was measured by the in vitro biochemical assay using ADP-Glo™ (Promega, V9102). The”

BRM = BRM (Homo sapiens, UniProt P51531); assay: ATPase catalytic activity assay of BRM (ADP-Glo); format: biochemical; details: for IC50: read-out: BRM IC50 (μM)*
Chain of BRM (P51531 whole entry): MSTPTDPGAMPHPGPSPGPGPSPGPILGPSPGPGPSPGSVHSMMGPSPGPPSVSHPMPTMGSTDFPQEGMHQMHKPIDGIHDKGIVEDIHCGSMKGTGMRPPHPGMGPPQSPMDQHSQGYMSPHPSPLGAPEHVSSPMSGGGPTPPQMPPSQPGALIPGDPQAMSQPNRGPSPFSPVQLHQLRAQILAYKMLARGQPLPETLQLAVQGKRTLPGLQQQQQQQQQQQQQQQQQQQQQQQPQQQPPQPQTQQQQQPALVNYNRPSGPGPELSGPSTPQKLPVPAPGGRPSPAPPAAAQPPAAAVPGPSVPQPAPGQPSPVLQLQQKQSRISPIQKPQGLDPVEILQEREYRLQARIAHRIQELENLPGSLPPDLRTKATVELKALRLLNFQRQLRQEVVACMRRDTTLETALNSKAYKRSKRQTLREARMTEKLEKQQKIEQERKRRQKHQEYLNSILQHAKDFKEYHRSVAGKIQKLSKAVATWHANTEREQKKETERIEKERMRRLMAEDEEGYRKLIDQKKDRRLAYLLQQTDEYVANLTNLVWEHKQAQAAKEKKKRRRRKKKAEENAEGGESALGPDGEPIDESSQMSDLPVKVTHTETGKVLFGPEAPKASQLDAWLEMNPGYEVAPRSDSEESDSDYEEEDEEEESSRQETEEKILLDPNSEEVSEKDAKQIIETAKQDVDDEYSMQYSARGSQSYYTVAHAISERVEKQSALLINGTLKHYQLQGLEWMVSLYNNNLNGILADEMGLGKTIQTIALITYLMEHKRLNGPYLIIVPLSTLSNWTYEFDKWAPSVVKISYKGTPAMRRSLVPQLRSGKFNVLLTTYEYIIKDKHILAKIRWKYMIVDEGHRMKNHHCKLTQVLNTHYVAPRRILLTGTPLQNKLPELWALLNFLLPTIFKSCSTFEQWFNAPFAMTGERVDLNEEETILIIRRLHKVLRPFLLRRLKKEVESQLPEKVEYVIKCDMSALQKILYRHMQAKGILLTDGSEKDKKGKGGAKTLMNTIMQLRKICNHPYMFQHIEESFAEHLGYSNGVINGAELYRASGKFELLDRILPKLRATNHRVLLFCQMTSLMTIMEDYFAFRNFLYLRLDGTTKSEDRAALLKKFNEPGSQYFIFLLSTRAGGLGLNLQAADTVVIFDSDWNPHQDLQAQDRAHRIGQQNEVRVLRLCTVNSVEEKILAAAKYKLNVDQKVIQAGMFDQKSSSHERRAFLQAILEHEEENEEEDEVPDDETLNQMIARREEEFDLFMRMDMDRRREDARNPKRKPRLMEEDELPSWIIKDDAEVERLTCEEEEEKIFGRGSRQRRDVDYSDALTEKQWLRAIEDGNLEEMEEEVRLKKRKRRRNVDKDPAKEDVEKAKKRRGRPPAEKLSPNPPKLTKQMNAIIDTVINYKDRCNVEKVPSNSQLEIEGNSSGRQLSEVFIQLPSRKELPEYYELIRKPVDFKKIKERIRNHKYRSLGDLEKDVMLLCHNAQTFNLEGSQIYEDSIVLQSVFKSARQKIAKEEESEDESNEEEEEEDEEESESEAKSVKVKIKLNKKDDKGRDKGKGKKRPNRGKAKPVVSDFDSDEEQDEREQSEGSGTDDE
Description: as §1, §2
as §1, with “The” for “The ATPase catalytic activity of BRM or BRG-1 was measured by the in vitro biochemical assay using ADP-Glo™ (Promega, V9102). The”

Chain of BRG-1 (P51532 whole entry): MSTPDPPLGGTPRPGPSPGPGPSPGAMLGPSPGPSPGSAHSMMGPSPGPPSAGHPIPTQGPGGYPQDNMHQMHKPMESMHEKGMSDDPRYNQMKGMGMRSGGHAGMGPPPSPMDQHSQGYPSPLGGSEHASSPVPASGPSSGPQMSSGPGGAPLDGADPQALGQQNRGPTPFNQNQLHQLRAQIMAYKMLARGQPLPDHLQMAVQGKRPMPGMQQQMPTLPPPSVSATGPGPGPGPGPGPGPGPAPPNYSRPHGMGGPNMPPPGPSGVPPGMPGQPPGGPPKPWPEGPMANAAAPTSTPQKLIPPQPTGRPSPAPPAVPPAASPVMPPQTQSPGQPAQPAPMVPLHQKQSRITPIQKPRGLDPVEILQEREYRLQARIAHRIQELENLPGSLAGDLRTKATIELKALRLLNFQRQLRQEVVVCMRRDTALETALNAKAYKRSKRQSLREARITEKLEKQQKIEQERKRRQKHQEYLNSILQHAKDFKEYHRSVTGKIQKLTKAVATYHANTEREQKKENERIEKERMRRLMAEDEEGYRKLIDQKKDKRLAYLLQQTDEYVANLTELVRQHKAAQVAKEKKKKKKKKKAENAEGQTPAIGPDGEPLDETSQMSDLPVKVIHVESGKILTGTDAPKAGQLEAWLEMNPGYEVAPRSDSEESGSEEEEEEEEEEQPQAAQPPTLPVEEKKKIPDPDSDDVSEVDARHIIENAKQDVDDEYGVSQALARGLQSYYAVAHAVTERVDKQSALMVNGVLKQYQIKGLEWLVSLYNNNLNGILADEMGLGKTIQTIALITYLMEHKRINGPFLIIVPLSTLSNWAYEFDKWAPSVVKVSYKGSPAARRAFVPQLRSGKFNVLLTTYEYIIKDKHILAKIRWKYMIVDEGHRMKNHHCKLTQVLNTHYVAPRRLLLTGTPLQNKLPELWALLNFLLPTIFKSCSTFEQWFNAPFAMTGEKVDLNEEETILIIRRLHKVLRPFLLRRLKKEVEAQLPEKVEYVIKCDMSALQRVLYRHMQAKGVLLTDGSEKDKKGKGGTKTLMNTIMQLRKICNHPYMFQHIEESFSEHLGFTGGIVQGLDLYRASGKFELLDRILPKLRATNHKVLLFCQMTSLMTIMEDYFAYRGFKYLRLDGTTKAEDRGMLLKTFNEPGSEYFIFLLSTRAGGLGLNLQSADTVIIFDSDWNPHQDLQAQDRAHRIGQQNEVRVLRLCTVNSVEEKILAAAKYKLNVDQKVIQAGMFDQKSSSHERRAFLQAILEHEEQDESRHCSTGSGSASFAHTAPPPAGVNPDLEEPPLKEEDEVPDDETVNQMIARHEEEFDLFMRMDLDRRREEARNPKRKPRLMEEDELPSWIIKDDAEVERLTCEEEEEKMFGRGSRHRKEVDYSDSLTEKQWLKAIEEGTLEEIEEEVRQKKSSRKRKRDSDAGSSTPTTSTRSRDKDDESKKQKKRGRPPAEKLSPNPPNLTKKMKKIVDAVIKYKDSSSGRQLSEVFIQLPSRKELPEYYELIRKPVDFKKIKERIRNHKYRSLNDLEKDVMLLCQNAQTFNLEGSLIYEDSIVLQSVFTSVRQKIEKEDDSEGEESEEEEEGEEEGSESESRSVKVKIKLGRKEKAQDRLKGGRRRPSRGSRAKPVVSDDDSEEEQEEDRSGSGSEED

Row | SMILES | IC50 (BRG-1) | Emax (BRG-1) | BRM Max % Inhibition (BRM) | IC50 (BRM) | IC50 (BRG-1; 30 nM BRG-1, 400 μM ATP) | Emax (BRG-1; 30 nM BRG-1, 400 μM ATP) | BRM Max % Inhibition (BRM; 30 nM BRM, 400 μM ATP) | IC50 (BRM; 30 nM BRM, 400 μM ATP) | BRG1 Max % Inhibition (BRG-1)
1 | C[C@@H]1CN(c2cccc(-c3csc(NC(=O)CNC(=O)c4ccc5c(c4)[C@H](C#N)CCO5)n3)n2)C[C@H](C)O1 (racemic) [Compound 405, rac-4-cyano-N-(2-((4-(6-((cis)-2,6-dimethylmorpholino)pyridin-2-yl)thiazol-2-yl)amino)-2-oxoethyl)chromane-6-carboxamide] | 1 to 5 µM | > 90% | >90% | 0.1 to 1 µM |  |  |  |  | 
2 | CCC(C)(O)c1cccc(C(=O)NCC(=O)Nc2nc(-c3cccc(-c4ccncc4)c3)cs2)c1 (single isomer, unassigned) [Compound 80] | 0.1 to 1 µM | > 80% | >90% | 1 to 5 µM |  |  |  |  | 
3 | CC1(C#N)CCc2ccc(C(=O)NCC(=O)Nc3nc(-c4cccc(-c5ccncc5)c4)cs3)cc21 (single isomer, unassigned) [Compound 88] | > 5 µM |  | >50% | 0.1 to 1 µM |  |  |  |  | >30%
4 | CC1(C#N)CCc2ccc(C(=O)NCC(=O)Nc3nc(-c4cccc(-c5ccncc5)c4)cs3)cc21 (single isomer, unassigned) [Compound 103] | < 0.1 µM |  | >95% | < 0.1 µM |  |  |  |  | >95%
5 | CC1(CO)CCc2ccc(C(=O)NCC(=O)Nc3nc(-c4cccc(-c5ccncc5)c4)cs3)cc21 (single isomer, unassigned) [Compound 105] | < 0.1 µM | > 90% | >95% | < 0.1 µM |  |  |  |  | 
6 | CC1(CO)CCc2ccc(C(=O)NCC(=O)Nc3nc(-c4cccc(-c5ccncc5)c4)cs3)cc21 (single isomer, unassigned) [Compound 107] | 0.1 to 1 µM |  | >90% | 0.1 to 1 µM |  |  |  |  | >70%
7 | C[C@@H]1CN(c2cccc(-c3csc(NC(=O)CNC(=O)c4ccc5c(c4)[C@](F)(C#N)COC5)n3)n2)C[C@H](C)O1 (single isomer, unassigned) [Compound 298] | 1 to 5 µM | > 95% | >95% | 0.1 to 1 µM |  |  |  |  | 
8 | C[C@@H]1CN(c2cccc(-c3csc(NC(=O)CNC(=O)c4ccc5c(c4)[C@@](F)(C#N)COC5)n3)n2)C[C@H](C)O1 (single isomer, unassigned) [Compound 299] | 0.1 to 1 µM | > 95% | >95% | < 0.1 µM |  |  |  |  | 
9 | CN1CCc2ccc(-c3csc(NC(=O)CNC(=O)c4ccc5c(c4)C(C)(CO)CC5)n3)cc2C1=O (stereo in doubt) [Compound 176, (R)-3-(hydroxymethyl)-3-methyl-N-(2-((4-(2-methyl-1-oxo-1,2,3,4-tetrahydroisoquinolin-7-yl)thiazol-2-yl)amino)-2-oxoethyl)-2,3-dihydro-1H-indene-5-carboxamide] | 0.1 to 1 µM | > 80% | >95% | 0.1 to 1 µM |  |  |  |  | 
10 | C[C@@H]1CN(c2cccc(-c3csc(NC(=O)CNC(=O)c4ccc5c(c4)C(F)(C(F)F)CCO5)n3)n2)C[C@H](C)O1 (stereo in doubt) [Compound 272, (R)-4-(difluoromethyl)-N-(2-((4-(6-((cis)-2,6-dimethylmorpholino)pyridin-2-yl)thiazol-2-yl)amino)-2-oxoethyl)-4-fluorochromane-6-carboxamide] | < 0.1 µM | > 95% | >95% | < 0.1 µM |  |  |  |  | 
11 | COC(=O)N1CCC[C@H](c2csc(NC(=O)CNC(=O)c3ccc4c(c3)C(C)(F)COC4)n2)C1 (stereo in doubt) [Compound 301, methyl (S)-3-(2-(2-((R)-4-fluoro-4-methylisochromane-6-carboxamido)acetamido)thiazol-4-yl)piperidine-1-carboxylate] | 1 to 5 µM | > 95% | >95% | 0.1 to 1 µM |  |  |  |  | 
12 | C[C@@H]1CN(c2cccc(-c3csc(NC(=O)CNC(=O)c4ccc5c(c4)C(F)(C(F)F)COC5)n3)c2)C[C@H](C)O1 (stereo in doubt) [Compound 307, (R)-4-(difluoromethyl)-N-(2-((4-(3-((cis)-2,6-dimethylmorpholino)phenyl)thiazol-2-yl)amino)-2-oxoethyl)-4-fluoroisochromane-6-carboxamide] | < 0.1 µM | > 95% | >95% | < 0.1 µM |  |  |  |  | 

More lines, now with the values ahead:

Row | IC50 (BRG-1) | Emax (BRG-1) | BRM Max % Inhibition (BRM) | IC50 (BRM) | IC50 (BRG-1; 30 nM BRG-1, 400 μM ATP) | Emax (BRG-1; 30 nM BRG-1, 400 μM ATP) | BRM Max % Inhibition (BRM; 30 nM BRM, 400 μM ATP) | IC50 (BRM; 30 nM BRM, 400 μM ATP) | BRG1 Max % Inhibition (BRG-1) | SMILES
13 |  |  |  |  | > 5 µM | > 80% | >80% | 0.1 to 1 µM |  | C[C@@H]1CN(c2cccc(-c3csc(NC(=O)CNC(=O)c4cccc([C@H]5COC[C@H]5O)c4)n3)c2)C[C@H](C)O1 (relative stereo) [Compound 424, N-(2-((4-(3-((cis)-2,6-dimethylmorpholino)phenyl)thiazol-2-yl)amino)-2-oxoethyl)-3-((cis)-4-hydroxytetrahydrofuran-3-yl)benzamide]
14 | 0.1 to 1 µM |  | >90% | 0.1 to 1 µM |  |  |  |  | >70% | CCC(C)(O)c1cccc(C(=O)NCC(=O)Nc2nc(-c3cccc(-c4ccncc4)c3)cs2)c1 (single isomer, unassigned) [Compound 81]
15 | > 5 µM | > 50% | >80% | 0.1 to 1 µM |  |  |  |  |  | C[C@@H]1CN(c2cccc(-c3csc(NC(=O)CNC(=O)c4ccc5c(c4)[C@](C)(CO)CO5)n3)n2)C[C@H](C)O1 (single isomer, unassigned) [Compound 132]
16 | 1 to 5 µM | > 70% | >95% | 0.1 to 1 µM |  |  |  |  |  | C[C@@H]1CN(c2cccc(-c3csc(NC(=O)CNC(=O)c4ccc5c(c4)[C@@](C)(CO)CO5)n3)n2)C[C@H](C)O1 (single isomer, unassigned) [Compound 133]
17 | > 5 µM | > 50% | >80% | 0.1 to 1 µM |  |  |  |  |  | CC1(CO)CCc2ccc(C(=O)NCC(=O)Nc3nc(-c4ccn5ccnc5c4)cs3)cc21 (stereo in doubt) [Compound 178, (R)-3-(hydroxymethyl)-N-(2-((4-(imidazo[1,2-a]pyridin-7-yl)thiazol-2-yl)amino)-2-oxoethyl)-3-methyl-2,3-dihydro-1H-indene-5-carboxamide]
18 | 0.1 to 1 µM | > 95% | >95% | < 0.1 µM |  |  |  |  |  | C[C@@H]1CN(c2cccc(-c3csc(NC(=O)CNC(=O)c4ccc5c(c4)C(F)(C(F)F)CCO5)n3)n2)C[C@H](C)O1 (stereo in doubt) [Compound 273, (S)-4-(difluoromethyl)-N-(2-((4-(6-((cis)-2,6-dimethylmorpholino)pyridin-2-yl)thiazol-2-yl)amino)-2-oxoethyl)-4-fluorochromane-6-carboxamide]
19 | 1 to 5 µM | > 90% | >90% | 0.1 to 1 µM |  |  |  |  |  | COc1cccc(-c2csc(NC(=O)CNC(=O)c3cc(F)c4c(c3)C(C)(O)COC4)n2)c1 (stereo in doubt) [Compound 280, (R)-8-fluoro-4-hydroxy-N-(2-((4-(3-methoxyphenyl)thiazol-2-yl)amino)-2-oxoethyl)-4-methylisochromane-6-carboxamide]
20 | 0.1 to 1 µM | > 95% | >95% | < 0.1 µM |  |  |  |  |  | CCOC(=O)N1CCCC(c2csc(NC(=O)CNC(=O)c3ccc4c(c3)[C@](C)(F)COC4)n2)C1 (stereo in doubt) [Compound 283, ethyl (S)-3-(2-(2-((S)-4-fluoro-4-methylisochromane-6-carboxamido)acetamido)thiazol-4-yl)piperidine-1-carboxylate]
21 | 0.1 to 1 µM | > 95% | >95% | < 0.1 µM |  |  |  |  |  | CCOC(=O)N1CCC[C@H](c2csc(NC(=O)CNC(=O)c3ccc4c(c3)C(C)(F)COC4)n2)C1 (stereo in doubt) [Compound 284, ethyl (S)-3-(2-(2-((R)-4-fluoro-4-methylisochromane-6-carboxamido)acetamido)thiazol-4-yl)piperidine-1-carboxylate]
22 | < 0.1 µM | > 95% | >95% | < 0.1 µM |  |  |  |  |  | C[C@@H]1CN(c2cccc(-c3csc(NC(=O)CNC(=O)c4ccc5c(c4)C(C)(C#N)CNC5)n3)c2)C[C@H](C)O1 (stereo in doubt) [Compound 287, (S)-4-cyano-N-(2-((4-(3-((cis)-2,6-dimethylmorpholino)phenyl)thiazol-2-yl)amino)-2-oxoethyl)-4-methyl-1,2,3,4-tetrahydroisoquinoline-6-carboxamide]
23 | 0.1 to 1 µM | > 95% | >95% | < 0.1 µM |  |  |  |  |  | COC(=O)N1CCCC(c2csc(NC(=O)CNC(=O)c3ccc4c(c3)[C@](C)(F)COC4)n2)C1 (stereo in doubt) [Compound 302, methyl (S)-3-(2-(2-((S)-4-fluoro-4-methylisochromane-6-carboxamido)acetamido)thiazol-4-yl)piperidine-1-carboxylate]
